Assay [1] concerns Spontaneously hypertensive rats (SHR). In words: Acute Efficacy in Spontaneously Hypertensive Rats (SHR), telemetry blood pressure. The class given is in vivo, rat. The settings on record: SHR male. In outline:
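Male SHR with aortic telemetry, conscious and freely moving, recovered 14 days post-surgery. Single oral gavage; vehicle 10% transcutol/20% Cremophor/70% water dosed the day before as baseline. Hourly blood pressure averages minus baseline; maximum peak systolic decrease reported at a stated oral dose (mpk).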

Another assay deals with T1, sGC α1/β1 heterodimer (Homo sapiens, UniProt Q02108+Q02153).
T1 construct: expressed in transfected cells; host or cells: CHO-K1 (clone #7, CHO-K1/sGC)
T1 sequence (Q02108 1-690): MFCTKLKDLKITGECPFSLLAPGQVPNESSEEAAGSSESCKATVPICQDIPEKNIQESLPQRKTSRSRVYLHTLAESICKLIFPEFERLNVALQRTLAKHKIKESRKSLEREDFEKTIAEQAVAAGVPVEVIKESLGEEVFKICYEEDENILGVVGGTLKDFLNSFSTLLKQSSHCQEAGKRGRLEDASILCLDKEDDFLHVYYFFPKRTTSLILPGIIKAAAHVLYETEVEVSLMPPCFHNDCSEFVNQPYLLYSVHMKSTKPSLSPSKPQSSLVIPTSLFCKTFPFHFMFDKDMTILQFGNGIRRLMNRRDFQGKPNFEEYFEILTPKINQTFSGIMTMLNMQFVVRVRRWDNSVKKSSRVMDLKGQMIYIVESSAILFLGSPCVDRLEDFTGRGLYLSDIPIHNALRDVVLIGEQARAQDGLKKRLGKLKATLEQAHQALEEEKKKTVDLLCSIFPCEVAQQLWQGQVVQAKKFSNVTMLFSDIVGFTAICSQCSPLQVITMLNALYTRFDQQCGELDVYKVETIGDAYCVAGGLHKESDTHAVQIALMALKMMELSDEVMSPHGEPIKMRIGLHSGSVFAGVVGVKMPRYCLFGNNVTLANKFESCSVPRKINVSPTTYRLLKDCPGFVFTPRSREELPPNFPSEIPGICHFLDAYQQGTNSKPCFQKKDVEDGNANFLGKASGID
T1 sequence (Q02153 1-619): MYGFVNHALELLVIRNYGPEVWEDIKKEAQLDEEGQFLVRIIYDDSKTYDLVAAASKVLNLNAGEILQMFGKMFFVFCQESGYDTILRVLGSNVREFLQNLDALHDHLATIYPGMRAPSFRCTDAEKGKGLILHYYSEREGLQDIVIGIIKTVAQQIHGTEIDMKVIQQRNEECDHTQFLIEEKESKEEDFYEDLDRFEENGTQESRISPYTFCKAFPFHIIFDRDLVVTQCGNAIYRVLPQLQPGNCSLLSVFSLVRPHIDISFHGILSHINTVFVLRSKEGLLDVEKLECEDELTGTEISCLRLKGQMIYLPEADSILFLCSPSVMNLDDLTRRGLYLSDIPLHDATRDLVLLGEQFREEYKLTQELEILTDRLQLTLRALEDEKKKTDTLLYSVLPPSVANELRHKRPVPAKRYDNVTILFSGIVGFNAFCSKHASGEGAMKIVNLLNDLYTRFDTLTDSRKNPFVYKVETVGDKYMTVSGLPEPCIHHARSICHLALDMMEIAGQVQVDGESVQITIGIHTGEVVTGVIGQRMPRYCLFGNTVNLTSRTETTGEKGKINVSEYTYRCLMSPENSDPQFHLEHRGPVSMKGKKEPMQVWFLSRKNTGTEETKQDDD
The experiment in a line: Cell-Based sGC Functional Assay (CASA Assay), cGMP by HTRF in CHO-K1/sGC cells. Particulars: for Emax: CHO-K1, percent activation relative to maximum cGMP production of Compound A (= 100%), read-out: % Act.; for EC50: cGMP production, 1 hr at 37° C., 4P fit, presence or absence of 1 μM DETA-NO not given, read-out: IP (nM) (inflection point). In outline: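 CHO-K1 cells stably expressing human sGC α1/β1, in EBSS buffer with 5 mM MgCl2, 10 mM HEPES, 0.05% BSA and 0.5 mM IBMX, incubated with compound (2.5% DMSO) ± 1 μM DETA-NO, 1 h, 37 °C. Intracellular cGMP read by HTRF; activity as % of reference activator maximum, IP from 4-parameter fit.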

Turning to `O=C1Nc2nc(-c3cn4ccnc4c(CCC(F)(F)C(F)(F)F)n3)nc(O)c2C1(c1ccc(F)cc1)C1CC1` (stereo not drawn) [Example 12B, 5-cyclopropyl-5-(4-fluorophenyl)-4-hydroxy-2-(8-(3,3,4,4,4-pentafluorobutyl)imidazo[1,2-a]pyrazin-6-yl)-5H-pyrrolo[2,3-d]pyrimidin-6(7H)-one], in assay [1] (single oral dose 3.0 mpk P.O.), the “Cat. (maximum peak decrease of systolic blood pressure (SBP) in SHR)” value is “A (Category A=SBP in SHRs<20 mmHg)”. Besides, on sGC α1/β1 heterodimer, the Emax turned out to be 92% and the EC50 came to 525 nM.

Consider `CC1(c2ccc(Cl)cn2)C(=O)Nc2nc(-c3cn4ccnc4c(Cc4ccc(F)cc4)n3)ncc21` (stereo not drawn) [Example 42A, 5-(5-chloropyridin-2-yl)-2-(8-(4-fluorobenzyl)imidazo[1,2-a]pyrazin-6-yl)-5-methyl-5H-pyrrolo[2,3-d]pyrimidin-6(7H)-one], for which, in assay [1] (single oral dose 0.3 mpk P.O.), the “Cat. (maximum peak decrease of systolic blood pressure (SBP) in SHR)” value is “B (Category B=SBP in SHRs 20-40 mmHg)”. On sGC α1/β1 heterodimer, the Emax is 124% and the EC50 is 4 nM.

Regarding `O=C1Nc2nc(-c3cn4ccnc4c(CCCC(F)(F)F)n3)nc(O)c2C1(c1ccc(Cl)cc1F)C1CC1` (stereo not drawn) [Example 34A, 5-(4-chloro-2-fluorophenyl)-5-cyclopropyl-4-hydroxy-2-(8-(4,4,4-trifluorobutyl)imidazo[1,2-a]pyrazin-6-yl)-5H-pyrrolo[2,3-d]pyrimidin-6(7H)-one], the “Cat. (maximum peak decrease of systolic blood pressure (SBP) in SHR)” value in assay [1] (single oral dose 3.0 mpk P.O.) is given as “B (Category B=SBP in SHRs 20-40 mmHg)”. Also, on sGC α1/β1 heterodimer, the Emax worked out at 124% and the EC50 turned out to be 102 nM.

Consider `O=C1Nc2nc(-c3cn4ccnc4c(CCCC(F)(F)F)n3)ncc2C1(c1ccc(F)cn1)C1CC1` (stereo not drawn) [Example 54A, 5-cyclopropyl-5-(5-fluoropyridin-2-yl)-2-(8-(4,4,4-trifluorobutyl)imidazo[1,2-a]pyrazin-6-yl)-5H-pyrrolo[2,3-d]pyrimidin-6(7H)-one], for which the “Cat. (maximum peak decrease of systolic blood pressure (SBP) in SHR)” value in assay [1] (single oral dose 1.0 mpk P.O.) is given as “A (Category A=SBP in SHRs<20 mmHg)”. Further, at sGC α1/β1 heterodimer, the Emax was 137% and the EC50 worked out at 21 nM.

Turning to `CC1(c2ccc(F)cn2)C(=O)Nc2nc(-c3cn4ccnc4c(CC4CCC4)n3)ncc21` (stereo not drawn) [Example 65B, 2-(8-(cyclobutylmethyl)imidazo[1,2-a]pyrazin-6-yl)-5-(5-fluoropyridin-2-yl)-5-methyl-5H-pyrrolo[2,3-d]pyrimidin-6(7H)-one], the “Cat. (maximum peak decrease of systolic blood pressure (SBP) in SHR)” value in assay [1] (single oral dose 0.3 mpk P.O.) was “B (Category B=SBP in SHRs 20-40 mmHg)”. Further, on sGC α1/β1 heterodimer, the Emax came to 102% and the EC50 worked out at 71 nM.

Regarding `CC1(c2ccc(Cl)cn2)C(=O)Nc2nc(-c3cn4ccnc4c(CC4CCC4)n3)nc(O)c21` (stereo not drawn) [Example 27A, 5-(5-chloropyridin-2-yl)-2-(8-(cyclobutylmethyl)imidazo [1,2-a]pyrazin-6-yl)-4-hydroxy-5-methyl-5H-pyrrolo[2,3-d]pyrimidin-6(7H)-one], the “Cat. (maximum peak decrease of systolic blood pressure (SBP) in SHR)” value in assay [1] (single oral dose 3.0 mpk P.O.) was “B (Category B=SBP in SHRs 20-40 mmHg)”. In addition, on sGC α1/β1 heterodimer, the Emax amounted to 95% and the EC50 stood at 645 nM.

As for `O=C1Nc2nc(-c3cn4ccnc4c(CCCC(F)(F)F)n3)nc(O)c2C1(c1ccc(F)cc1)C1CC1` (stereo not drawn) [Example 35B, 5-cyclopropyl-5-(4-fluorophenyl)-4-hydroxy-2-(8-(4,4,4-trifluorobutyl)imidazo[1,2-a]pyrazin-6-yl)-5H-pyrrolo[2,3-d]pyrimidin-6(7H)-one], the “Cat. (maximum peak decrease of systolic blood pressure (SBP) in SHR)” value in assay [1] (single oral dose 3.0 mpk P.O.) was “A (Category A=SBP in SHRs<20 mmHg)”. Also, at sGC α1/β1 heterodimer, the Emax came out at 148% and the EC50 was 190 nM.

Consider `O=C1Nc2nc(-c3cn4ccnc4c(CCCC(F)(F)F)n3)ncc2C1(c1ccc(F)c(F)c1)C1CC1` (stereo not drawn) [Example 44A, 5-cyclopropyl-5-(3,4-difluorophenyl)-2-(8-(4,4,4-trifluorobutyl)imidazo[1,2-a]pyrazin-6-yl)-5H-pyrrolo[2,3-d]pyrimidin-6(7H)-one], for which, in assay [1] (single oral dose 1.0 mpk P.O.), the “Cat. (maximum peak decrease of systolic blood pressure (SBP) in SHR)” value is “B (Category B=SBP in SHRs 20-40 mmHg)”. Moreover, on sGC α1/β1 heterodimer, the Emax came to 150% and the EC50 was 114 nM.

Take `CCCc1nc(-c2ncc3c(n2)NC(=O)C3(C)c2ccc(Cl)c(F)c2)cn2ccnc12` (stereo not drawn) [Example 38B, 5-(4-chloro-3-fluorophenyl)-5-methyl-2-(8-propylimidazo[1,2-a]pyrazin-6-yl)-5H-pyrrolo[2,3-d]pyrimidin-6(7H)-one]: the “Cat. (maximum peak decrease of systolic blood pressure (SBP) in SHR)” value in assay [1] (single oral dose 1.0 mpk P.O.) is “A (Category A=SBP in SHRs<20 mmHg)”. In addition, on sGC α1/β1 heterodimer, the Emax stood at 135% and the EC50 was 173 nM.

With `CC1(c2ccc(Cl)cn2)C(=O)Nc2nc(-c3cn4ccnc4c(CCC(F)(F)C(F)(F)F)n3)nc(O)c21` (stereo not drawn) [Example 17A, 5-(5-chloropyridin-2-yl)-4-hydroxy-5-methyl-2-(8-(3,3,4,4,4-pentafluorobutyl)imidazo[1,2-a]pyrazin-6-yl)-5H-pyrrolo[2,3-d]pyrimidin-6(7H)-one], the “Cat. (maximum peak decrease of systolic blood pressure (SBP) in SHR)” value in assay [1] (single oral dose 1.0 mpk P.O.) was “A (Category A=SBP in SHRs<20 mmHg)”. At sGC α1/β1 heterodimer, the Emax came out at 90% and the EC50 turned out to be 294 nM.

As for `CC1(c2ccc(F)cn2)C(=O)Nc2nc(-c3cn4ccnc4c(CC4CCC4)n3)nc(O)c21` (stereo not drawn) [Example 31B, 2-(8-(cyclobutylmethyl)imidazo [1,2-a]pyrazin-6-yl)-5-(5-fluoropyridin-2-yl)-4-hydroxy-5-methyl-5H-pyrrolo[2,3-d]pyrimidin-6(7H)-one], the “Cat. (maximum peak decrease of systolic blood pressure (SBP) in SHR)” value in assay [1] (single oral dose 3.0 mpk P.O.) is listed as “B (Category B=SBP in SHRs 20-40 mmHg)”. For the same compound, on sGC α1/β1 heterodimer, the Emax was determined as 82% and the EC50 turned out to be 459 nM.

On to `CC1(c2ccc(F)cn2)C(=O)Nc2nc(-c3cn4ccnc4c(CCCC(F)(F)F)n3)ncc21` (stereo not drawn) [Example 66B, 5-(5-fluoropyridin-2-yl)-5-methyl-2-(8-(4,4,4-trifluorobutyl)imidazo[1,2-a]pyrazin-6-yl)-5H-pyrrolo[2,3-d]pyrimidin-6(7H)-one], for which the “Cat. (maximum peak decrease of systolic blood pressure (SBP) in SHR)” value in assay [1] (single oral dose 1.0 mpk P.O.) is listed as “A (Category A=SBP in SHRs<20 mmHg)”. For the same compound, on sGC α1/β1 heterodimer, the Emax came to 125% and the EC50 amounted to 217 nM.

Values taken from patent publication US10213429B2, “Imidazo-pyrazinyl derivatives useful as soluble guanylate cyclase activators” (Merck Sharp & Dohme Corp., priority 2015, dated 2019).
